Laboratory results taken from PMC10822168, “Development of potent isoflavone-based formyl peptide receptor 1 (FPR1) antagonists and their effects in gastric cancer cell models” (European journal of medicinal chemistry, 2023).

Legend:
Type in all cases: cell-based, human
[1] = test system: VEGFA; assay: ELISA of VEGFA secretion in culture medium of AGS cells; conditions: fMLF 10 nM, 48 h
Procedure: (§1) Secretion of VEGFA and angiopoietin 2 (Ang2) in the culture medium of NCl–N87 and AGS cells was assessed after 48 h of drug treatment using ELISA methods (Fig. 10). […] Once again, the effects were more pronounced in NCl–N87 cells than in AGS, and the effect of 25a was more pronounced as compared to 24a. The co-administration of fMLF (10 nM) partially counteracted the effects.
(§2) Fig. 10. Effect of 24a and 25a on the secretion of VGFA (A) and Ang2 (B) in NCl–N87 and AGS cell lines. The ELISA assays were assessed on cells after 48 h of drug treatment with fMLF (10 nM) and 24a or 25a (1, 5 μM) administrated alone or combining the lowest dose of 24a or 25a with fMLF. The concentration of VEGFA (A) or Ang2 (B) was determined in the medium and normalized for the cell number. The values ± SD, obtained from three independent experiments expressed as pg/mL, were shown in the relative graphs. Statistical analysis was assessed by comparing the values obtained using a single drug treatment to those of corresponding untreated cells and the combined treatments to those of the single treatments. **p < 0.001; ***p < 0.0002; ****p < 0.0001. […]

[2] = test system: ANGPT2 mRNA; assay: Real-time PCR of ANGPT2 mRNA expression in NCl–N87 and AGS cells; conditions: 24 h, fMLF 10 nM, antagonists 1 or 2 μM, normalized to GAPDH, untreated = 1
Excerpt: (§3) It has been reported that FPR1 can exert a tumor suppressor function in human GC by inhibiting angiogenesis and that silencing of the receptor increases the constitutive proangiogenic potential of GC cells. Therefore, we assessed the effect of 24a and 25a on the mRNA expression level and secretion of the proangiogenic factors, the vascular growth factor A (VEGFA), and the angiopoietin 2. […] These effects were more pronounced in NCl–N87 cells and resulted more strongly for 25a than 24a. The values obtained after each treatment were normalized to the expression of GAPDH and compared to the reference value of the two genes in untreated cells, which were set equal to 1 (Fig. 9).
(§4) Fig. 9. Effect of 24a and 25a on mRNA expression of VGFA and ANGPT2 in NCl–N87 and AGS cell lines. Real-time PCR experiments in NCl–N87 and AGS cells with specific primers for VEGFA and ANGPT2 genes. The mRNA expression was normalized on the GAPDH housekeeping gene. Expression analysis was performed after treatment with fMLF (10 nM) and 24a or 25a (1, 2, 5 μM) administrated alone or combining the lowest dose of 24a or 25a with fMLF. All expression values were calculated against the value of untreated PTX-sensitive cells, set equal to 1. Statistical analysis was assessed by comparing the values obtained using single drug treatment to those of corresponding untreated cells and the combined treatments to those of single treatments. The values of untreated PTX-resistant cells were compared with those of untreated PTX-sensitive ones. Data were mean ± SD (n = 3). *p < 0.05, **p < 0.001, ***p < 0.0002, ****p < 0.0001.
(§5) Total RNA was extracted from FPR1 antagonist-treated NCl–N87 and AGS treated cells using the Qiagen RNeasy Mini Kit (Qiagen, Hilden, Germany) following the manufacturer’s instructions. Samples were retro-transcribed using the iScript Advanced cDNA Synthesis Kit (Bio-Rad Laboratories, California, USA). Real-Time-PCRs analyzed cDNA samples for the evaluation of VEGFA and ANGPT2 expression. […] Relative quantification was performed using the ddCT method.

[3] = test system: VEGFA; assay: ELISA of VEGFA secretion in culture medium of NCl–N87 cells; conditions: NCl–N87, fMLF 10 nM, 48 h
Procedure: as §1, §2

[4] = test system: NCl–N87 cells; assay: Scratch migration assay in NCl–N87 cells; conditions: NCl–N87, fMLF 10 nM, 24 h incubation
Excerpt: The results are representative of three independent experiments.

[5] = test system: angiopoietin 2 (Ang2); assay: ELISA of angiopoietin 2 secretion in culture medium of AGS cells; conditions: fMLF 10 nM, 48 h
Procedure: as §1, §2

[6] = test system: VEGFA mRNA; assay: Real-time PCR of VEGFA mRNA expression in NCl–N87 and AGS cells; conditions: 24 h, fMLF 10 nM, antagonists 1 or 2 μM, normalized to GAPDH, untreated = 1
Excerpt: as §3, §4, §5

[7] = test system: AGS cells; assay: Scratch migration assay in AGS cells; conditions: fMLF 10 nM, 24 h incubation
Procedure: The effect of FPR1 blockade on cell migration was assessed using the scratch assay, an easy and well-developed method to measure cell migration in vitro. […] Conversely, 24a and 25a reduced the migration rate in a dose-dependent manner. The effect was more pronounced in NCl–N87 as compared to AGS cells. […] The effect was FPR1-mediated, as it was counterbalanced by co-administration of the agonist fMLF (10 nM).
Fig. 8. Effect of 24a and 25a on cell migration in NCl–N87 and AGS cell lines. Scratch assay assessed on cells treated with fMLF (10 nM) and 24a or 25a (1, 1.5, 2 μM) administrated alone or combining the lowest dose of 24a or 25a with fMLF. The cells were microscopically analyzed at the time of the scratch (T0) and after 24 h (T1). The relative migration rate was calculated by setting the percentage of migration of the control cells at time T1 equal to 1 and comparing the migration percentage of the cells after each drug treatment to this value. Representative original photographs (panel A) and quantitative analysis (panel B) of the cell-free scratch path ares. […] Statistical analysis was assessed by comparing the values obtained using a single drug treatment to those of corresponding untreated cells and the combined treatments to those of the single treatments, *p < 0.05, **p < 0.001, ****p < 0.0001. […]

[8] = test system: angiopoietin 2 (Ang2); assay: ELISA of angiopoietin 2 secretion in culture medium of NCl–N87 cells; conditions: NCl–N87, fMLF 10 nM, 48 h
Procedure: as §1, §2

N-formyl-methionyl-leucyl-phenylalanine [fMLF]
reduction in the secretion of VEGFA [1]: ~35% | angiopoietin 2 (ANGPT2) mRNA expression [2]: reduced expression | reduction in the secretion of VEGFA [3]: approximately 40% | increase in cell mobility [4]: 41% | reduction in the secretion of Ang2 [5]: ~23% | VEGFA mRNA expression [6]: reduced expression | increase in cell mobility [7]: 32% | reduction in the secretion of Ang2 [8]: ~22%
